Experiments:
phospho-ERK in AGS cells = test: pERK In Cell Western (ICW) assay (Method B), AGS; assay type: cell-based; conditions: Homo sapiens, Table 2, 3 hours
Procedure: pERK ICW is a high throughput screening assay to evaluate the cellular potency of mutant KRAS small molecule inhibitors. KRAS mutant cell lines AGS, GP2D (KRAS-G12D) as well as SW620 (KRAS-G12V) were purchased from ATCC and maintained respectively in RPMI/DMEM/RPMI medium supplemented with 10% fetal bovine serum.
Cells grown in exponential phase were trypsinized, resuspended in fresh media, and viable cells were counted using a cell counter with Trypan Blue (BioRad TC20). Cells were seeded into 384-well plate (Greiner 781091) at density of 5,000 cells/well for AGS and 10,000 cells/well for GP2D/SW620 and allowed to grow overnight in a 37° C. CO2 incubator. The next day, compounds were dispensed into wells with a ½ log, 9-point serial dilution using a Tecan D300e dispenser and incubated for 3 hours in a 37° C. CO2 incubator. Cells were then fixed with paraformaldehyde (Electron Microscopy Sciences, 15710, 4% final concentration) for 30 min, permeabilized with wash buffer (1×PBS+0.1% Triton X-100) for 30 min and blocked with Odyssey blocking buffer (Li—COR 927-70001) for 1 hour, all at room temperature (RT). Phospho-ERK antibody (CST 4370L) was diluted 1:500 in Odyssey T20 (PBS) antibody diluent (Li—COR 927-75001) and incubated with cells overnight at 4° C. The next day, plates were washed 5× with wash buffer, incubated with IRDye 800 CW, Goat anti-Rabbit secondary antibody (Li—COR 926-32211, 1:800) and DRAQ5 (CST 4084L, 1:5,000) diluted in Odyssey T20 (PBS) antibody diluent for 1 hour, washed 5×, and imaged on an Odyssey CLx imaging system.
For data analysis, signal intensities from 800 (phosphor-ERK) and 700 (DRAQ5) channels were extracted, and phospho-ERK signals were normalized to DRAQ5 signals for each well and percent of blank control values were computed. Data were then imported into Graphpad Prism to compute half-maximal inhibitory concentrations (IC50) using a 4-parameter variable slope model. Z-factor for each plate was computed from signals derived from wells treated with either DMSO or 5 μM of control compound. AGS pERK ICW (Method B) IC50 (uM) values of selected compounds are depicted in Table 2 with compounds having a value ≥0.001 uM to 0.01 uM as ++++; ≥0.01 uM to 0.1 uM as +++; ≥0.1 uM to 1 uM as ++; ≥1 uM to 10 uM as + and ≥10 uM as NA.

KRAS G12D/RAF1 = target: T1, KRAS G12D/RAF1 (Homo sapiens, UniProt P01116, G12D); test: Protein-protein interaction (PPI) HTRF assay KRAS G12D/RAF1; assay type: binding; conditions: Table 2
T1 construct: KRAS (1-169) proteins were expressed in BL21 (DE3)-CodonPlus E. coli; His6-MBP (N, cleaved yes)
T1 sequence (P01116 with tags, fused parts or gaps isoform P01116-2 G12D): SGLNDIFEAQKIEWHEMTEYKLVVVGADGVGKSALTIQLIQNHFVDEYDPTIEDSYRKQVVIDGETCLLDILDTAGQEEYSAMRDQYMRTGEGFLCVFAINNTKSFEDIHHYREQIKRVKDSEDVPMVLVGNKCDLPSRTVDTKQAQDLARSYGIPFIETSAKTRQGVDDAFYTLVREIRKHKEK
Procedure: (§1) When RAS proteins are in the active GTP-bound conformation, they bind the effector protein RAF1 at the N-terminus Ras-binding domain (RBD, residues 52-131) (Tran, et al., 2021). Homogenous time resolved fluorescence (HTRF) was used to monitor the interaction between wt or mutant KRAS and RAF1 or wt NRAS and RAF1. Compounds were assayed in the presence of KRAS G12D/V and RAF1 versus wt KRAS to assess activity against mutant and w.t. KRAS. Similarly, compounds were then assayed in the presence of w.t. NRAS and RAF1 to assess RAS isoform selectivity. In all assay formats, His-tagged RAF1 protein was incubated with the HTRF donor, anti-6His Tb Cryptate gold (Cisbio 61DB10RDF), and biotinylated RAS proteins were incubated with the HTRF acceptor, streptavidin-d2 (CisBio 610SADLA). The intensity of the fluorescence signal emitted is proportional to binding between the two proteins. The donor solution was prepared by mixing 16 nM His-tagged RAF1 in protein dilution buffer with 1:100 anti-6His Tb cryptate in PPI-Terbium detection buffer. 16 nM biotinylated RAS protein was diluted into protein dilution buffer (50 mM Tris-HCl pH 7.5, 150 mM NaCl, 0.1 mM MgCl2, 1 mM TCEP, 0.005% Tween20) and mixed with 1:2000 Streptavidin-d2 diluted in PPI-Terbium detection buffer (CisBio 61DB10RDF). 50× compound in DMSO was mixed with 16 nM KRAS-acceptor solution and incubated for 30 minutes at room temperature. After compound pre-incubation with KRAS, the RAF1 donor solution was added to the KRAS-acceptor solution and incubated for 1 hour at room temperature. The fluorescence signal emitted was monitored at 665 nm and 615 nm using an Envision multimode plate reader. The HTRF ratio (665/615) was calculated and normalized to 0% inhibition in the absence of compound and 100% inhibition in the presence of untagged RAF1 protein. PPI KRAS G12D/RAF1, KRAS G12V/RAF1, w.t. KRAS/RAF1 and NRAS/RAF1 IC50 (uM) values of selected compounds are depicted in Table 3 and Table 4 with compounds having a value <0.1 uM as ++++; ≥0.1 uM to 1 uM as +++; ≥1 uM to 10 uM as ++; ≥10 uM to 100 uM as +; and ≥100 uM as NA.

NRAS/RAF1 = target: T2, NRAS/RAF1 (Homo sapiens, UniProt P01111); test: Protein-protein interaction (PPI) HTRF assay w.t. NRAS/RAF1; assay type: binding; conditions: Table 3; wt NRAS/RAF1
T2 construct: (1-169); His6-SUMO (N, cleaved yes)
T2 sequence (P01111 with tags, fused parts or gaps): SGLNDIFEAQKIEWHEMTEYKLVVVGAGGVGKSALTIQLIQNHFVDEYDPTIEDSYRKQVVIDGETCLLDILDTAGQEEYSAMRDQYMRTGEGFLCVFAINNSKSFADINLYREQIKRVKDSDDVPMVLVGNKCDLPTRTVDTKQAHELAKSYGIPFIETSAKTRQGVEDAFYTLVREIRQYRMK
Procedure: as §1

[1] = target: GST-tagged KRAS-G12D (2-169) (Homo sapiens, UniProt P01116, G12D); test: Nucleotide exchange assay (NEA), SOS-mediated, HTRF, KRAS G12D; assay type: biochemical; conditions: Table 2; IC50 extracted at 30 min; 20 nM SOScat; read-out: NEA-G12D (uM) IC50
Chain of GST-tagged KRAS-G12D (2-169) (P01116 2-169 isoform P01116-2 G12D): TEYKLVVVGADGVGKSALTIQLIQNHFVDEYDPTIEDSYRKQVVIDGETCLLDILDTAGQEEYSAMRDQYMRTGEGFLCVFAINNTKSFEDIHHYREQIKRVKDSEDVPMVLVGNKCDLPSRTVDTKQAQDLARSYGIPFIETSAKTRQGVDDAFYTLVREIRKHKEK
How it was run: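 Compound preincubated 1 h at RT with 0.25 nM GST-KRAS-G12D (2-169) and anti-GST Tb donor, then 20 nM SOS1cat (564-1049) and 150 nM GTP-DY-647P1 added; pH 7.3 HEPES buffer with MgCl2 and DTT. HTRF monitored at RT; % inhibition versus DMSO and no-SOS blank, 4-parameter IC50 taken at 30 min.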

CN(C)C(=O)c1nn2c(c1Cl)CN(c1nc(OC[C@@]34CCCN3C[C@H](F)C4)nc(N3CC4(CCc5sc(N)c(C#N)c54)C3)n1)CCC2 [Compound 5, 5-[4-(2-amino-3-cyano-spiro[5,6-dihydrocyclopenta[b]thiophene-4,3′-azetidine]-1′-yl)-6-[[(2R,8S)-2-fluoro-1,2,3,5,6,7-hexahydropyrrolizin-8-yl]methoxy]-1,3,5-triazin-2-yl]-3-chloro-N,N-dimethyl-4,6,7,8-tetrahydropyrazolo[1,5-a][1,4]diazepine-2-carboxamide] was tested, and the IC50 (phospho-ERK in AGS cells) was 0.1 to 1 µM, the IC50 (KRAS G12D/RAF1) was 10 to 100 µM and the IC50 (NRAS/RAF1) was > 100 µM. For the same molecule, the IC50 [1] was < 0.01 µM.
For N#Cc1c(N)sc(Cl)c1C1CCN(c2nc(OCC3(CN4CCOCC4)CC3)nc(N3C[C@H]4CC[C@@H](C3)N4)n2)C1 (stereo partly drawn) [Compound 4, 2-amino-5-chloro-4-[1-[4-[[1-(morpholinomethyl)cyclopropyl]methoxy]-6-[(1R,5S)-3,8-diazabicyclo[3.2.1]octan-3-yl]-1,3,5-triazin-2-yl]pyrrolidin-3-yl]thiophene-3-carbonitrile], the IC50 (phospho-ERK in AGS cells) was 1 to 10 µM, the IC50 (KRAS G12D/RAF1) was 1 to 10 µM and the IC50 (NRAS/RAF1) was > 100 µM. The IC50 [1] was < 0.01 µM.
